Residues, ends and D or L forms follow the SMILES beside them.
How the values were obtained:
Proteasome component C5 = target: T1, Proteasome component C5 (Saccharomyces cerevisiae S288c, UniProt P23724); experiment: Inhibition of post acid activity of yeast 20S proteasome
T1 sequence (P23724 whole entry): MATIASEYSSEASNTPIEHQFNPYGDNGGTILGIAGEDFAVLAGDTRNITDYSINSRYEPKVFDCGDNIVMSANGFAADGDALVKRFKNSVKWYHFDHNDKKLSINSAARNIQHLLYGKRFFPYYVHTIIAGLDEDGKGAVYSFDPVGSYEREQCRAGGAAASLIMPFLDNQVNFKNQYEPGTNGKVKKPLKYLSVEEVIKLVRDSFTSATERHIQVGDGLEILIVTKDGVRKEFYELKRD

[1] = target: T2, Proteasome Macropain subunit (Saccharomyces cerevisiae S288c) (UniProt P22141); experiment: Inhibition of trypsin like activity of yeast 20S proteasome at 625 uM
T2 sequence (whole entry): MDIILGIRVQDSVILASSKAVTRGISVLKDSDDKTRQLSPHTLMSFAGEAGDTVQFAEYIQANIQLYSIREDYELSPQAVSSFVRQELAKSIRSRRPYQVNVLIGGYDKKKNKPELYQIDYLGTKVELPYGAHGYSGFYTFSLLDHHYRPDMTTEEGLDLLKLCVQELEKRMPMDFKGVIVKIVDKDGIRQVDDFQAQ

[2] = target: T3, Proteasome Macropain subunit PRE2 (Saccharomyces cerevisiae S288c, UniProt P30656); experiment: Inhibition of chymotrypsin like activity of yeast 20S proteasome
T3 sequence (P30656 whole entry): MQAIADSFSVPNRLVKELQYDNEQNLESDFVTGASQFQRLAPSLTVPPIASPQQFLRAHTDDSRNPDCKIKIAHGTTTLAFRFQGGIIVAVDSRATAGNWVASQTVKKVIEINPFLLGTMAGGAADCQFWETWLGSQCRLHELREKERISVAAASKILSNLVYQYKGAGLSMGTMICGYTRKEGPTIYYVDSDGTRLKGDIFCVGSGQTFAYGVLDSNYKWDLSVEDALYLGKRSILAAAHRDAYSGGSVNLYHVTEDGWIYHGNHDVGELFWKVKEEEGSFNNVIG

[3] = target: T4, Proteasome Macropain subunit PRE2 (Saccharomyces cerevisiae S288c) (UniProt P30656); experiment: Inhibition of chymotrypsin like activity of yeast 20S proteasome at 80 uM
T4 sequence (whole entry): T3 sequence (P30656 whole entry)

[4] = target: T2, Proteasome Macropain subunit (Saccharomyces cerevisiae S288c); experiment: Inhibition of trypsin like activity of yeast 20S proteasome at 80 uM
[5] = target: T5, Proteasome component C5 (Saccharomyces cerevisiae S288c) (UniProt P23724); experiment: Inhibition of post acid activity of yeast 20S proteasome at 80 uM
T5 sequence (whole entry): T1 sequence (P23724 whole entry)

[6] = target: T6, Proteasome Macropain subunit (Saccharomyces cerevisiae S288c, UniProt P22141); experiment: Inhibition of trypsin like activity of yeast 20S proteasome
T6 sequence (P22141 whole entry): T2 sequence (whole entry)

[7] = target: T5, Proteasome component C5 (Saccharomyces cerevisiae S288c); experiment: Activation of post acid activity of yeast 20S proteasome

Ki (Proteasome component C5) | Compound | Ki [2] | inhibition [4] | further results
> 625 µM | H-TVTYKY-OH | > 625 µM | – | inhibition [1]: < 10%
– | N[C@@H](Cc1ccc(O)cc1)C(=O)N[C@@H](CCC(=O)O)C(=O)N[C@@H](CC(=O)O)C(=O)O (H-Tyr-Glu-Asp-OH) | – | < 10% | inhibition [3]: < 10%; inhibition [5]: < 10%
– | CCCCCCCC(=O)N[C@H](C(=O)N[C@H](C(=O)N[C@H](C(=O)N[C@@H](Cc1ccccc1)C(=O)N[C@@H](CCCCN)C(=O)N[C@@H](Cc1ccccc1)C(=O)O)[C@@H](C)O)C(C)C)[C@@H](C)O (HELM PEPTIDE1{[CCCCCCCC(=O)[*:2]].T.V.T.F.K.F}$$$$V2.0) | > 80 µM | – | –
– | CCCCCC(=O)N[C@H](C(=O)N[C@H](C(=O)N[C@H](C(=O)N[C@@H](Cc1ccccc1)C(=O)N[C@@H](CCCCN)C(=O)N[C@@H](Cc1ccccc1)C(=O)O)[C@@H](C)O)C(C)C)[C@@H](C)O (HELM PEPTIDE1{[CCCCCC(=O)[*:2]].T.V.T.F.K.F}$$$$V2.0) | 43 µM | < 10% | inhibition [5]: < 10%
62 µM | CCCCCCCCCCCC(=O)N[C@@H](Cc1ccc(O)cc1)C(=O)N[C@@H](CCC(=O)O)C(=O)N[C@@H](CC(C)C)C(=O)O (HELM PEPTIDE1{[CCCCCCCCCCCC(=O)[*:2]].Y.E.L}$$$$V2.0) | – | – | Ki [6]: > 80 µM; inhibition [3]: < 10%
72 µM | CCCCCCCCCC(=O)N[C@@H](Cc1ccc(O)cc1)C(=O)N[C@@H](CCC(=O)O)C(=O)N[C@@H](CC(C)C)C(=O)O (HELM PEPTIDE1{[CCCCCCCCCC(=O)[*:2]].Y.E.L}$$$$V2.0) | – | < 10% | inhibition [3]: < 10%
– | CCCCCCCCCCCCCCCC(=O)N[C@@H](Cc1ccccc1)C(=O)N[C@@H](CCCCN)C(=O)N[C@@H](Cc1ccccc1)C(=O)O (HELM PEPTIDE1{[CCCCCCCCCCCCCCCC(=O)[*:2]].F.K.F}$$$$V2.0) | 30 µM | – | Ki [6]: > 80 µM; inhibition [5]: < 10%
– | CCCCCCCCCCCCCCCC(=O)N[C@@H](Cc1ccc(O)cc1)C(=O)N[C@@H](CC(N)=O)C(=O)N[C@H](C(=O)O)[C@@H](C)O (HELM PEPTIDE1{[CCCCCCCCCCCCCCCC(=O)[*:2]].Y.N.T}$$$$V2.0) | 30 µM | – | –
– | CCCCCCCCCCCCCC(=O)N[C@H](C(=O)N[C@H](C(=O)N[C@H](C(=O)N[C@@H](Cc1ccc(O)cc1)C(=O)N[C@@H](CCCCN)C(=O)N[C@@H](Cc1ccccc1)C(=O)O)[C@@H](C)O)C(C)C)[C@@H](C)O (HELM PEPTIDE1{[CCCCCCCCCCCCCC(=O)[*:2]].T.V.T.Y.K.F}$$$$V2.0) | – | – | Ki [6]: 80 µM; Activity [7]: 1.2
> 625 µM | H-TVSYKF-OH | > 625 µM | – | inhibition [1]: < 10%
– | CCCCCCCCCC(=O)N[C@H](C(=O)N[C@H](C(=O)N[C@H](C(=O)N[C@@H](Cc1ccccc1)C(=O)N[C@@H](CCCCN)C(=O)N[C@@H](Cc1ccccc1)C(=O)O)[C@@H](C)O)C(C)C)[C@@H](C)O (HELM PEPTIDE1{[CCCCCCCCCC(=O)[*:2]].T.V.T.F.K.F}$$$$V2.0) | 28 µM | – | –
59 µM | CCCCCC(=O)N[C@@H](Cc1ccc(O)cc1)C(=O)N[C@@H](CCC(=O)O)C(=O)N[C@@H](CC(C)C)C(=O)O (HELM PEPTIDE1{[CCCCCC(=O)[*:2]].Y.E.L}$$$$V2.0) | > 80 µM | < 10% | –
– | CCCCCCCCCC(=O)N[C@H](C(=O)N[C@H](C(=O)N[C@H](C(=O)N[C@@H](Cc1ccccc1)C(=O)N[C@@H](CC(=O)O)C(=O)N[C@@H](Cc1ccc(O)cc1)C(=O)O)[C@@H](C)O)[C@@H](C)CC)[C@@H](C)O (HELM PEPTIDE1{[CCCCCCCCCC(=O)[*:2]].T.I.T.F.D.Y}$$$$V2.0) | 37 µM | – | –
– | CCCCCC(=O)N[C@H](C(=O)N[C@H](C(=O)N[C@H](C(=O)N[C@@H](Cc1ccccc1)C(=O)N[C@@H](CC(=O)O)C(=O)N[C@@H](Cc1ccc(O)cc1)C(=O)O)[C@@H](C)O)[C@@H](C)CC)[C@@H](C)O (HELM PEPTIDE1{[CCCCCC(=O)[*:2]].T.I.T.F.D.Y}$$$$V2.0) | 34 µM | < 10% | inhibition [5]: < 10%
> 625 µM | H-TITFDY-OH | > 625 µM | – | inhibition [1]: < 10%
– | CCCCCCCCCCCCCCCC(=O)OC | – | < 10% | inhibition [3]: < 10%; inhibition [5]: < 10%
– | CCCCCC(=O)N[C@H](C(=O)N[C@H](C(=O)N[C@H](C(=O)N[C@@H](Cc1ccc(O)cc1)C(=O)N[C@@H](CCCCN)C(=O)N[C@@H](Cc1ccccc1)C(=O)O)[C@@H](C)O)C(C)C)[C@@H](C)O (HELM PEPTIDE1{[CCCCCC(=O)[*:2]].T.V.T.Y.K.F}$$$$V2.0) | 80 µM | – | Ki [6]: 315 µM; inhibition [5]: < 10%
> 80 µM | CCCCCCCCCCCC(=O)N[C@H](C(=O)N[C@H](C(=O)N[C@H](C(=O)N[C@@H](Cc1ccccc1)C(=O)N[C@@H](CC(=O)O)C(=O)N[C@@H](Cc1ccc(O)cc1)C(=O)O)[C@@H](C)O)[C@@H](C)CC)[C@@H](C)O (HELM PEPTIDE1{[CCCCCCCCCCCC(=O)[*:2]].T.I.T.F.D.Y}$$$$V2.0) | > 80 µM | – | Ki [6]: > 80 µM
– | CCCCCCCCCC(=O)N[C@H](C(=O)N[C@H](C(=O)N[C@H](C(=O)N[C@@H](Cc1ccc(O)cc1)C(=O)N[C@@H](CCCCN)C(=O)N[C@@H](Cc1ccccc1)C(=O)O)[C@@H](C)O)C(C)C)[C@@H](C)O (HELM PEPTIDE1{[CCCCCCCCCC(=O)[*:2]].T.V.T.Y.K.F}$$$$V2.0) | 72 µM | < 10% | Activity [7]: 1.2
– | CCCCCCCCCCCC(=O)N[C@H](C(=O)N[C@H](C(=O)N[C@H](C(=O)N[C@@H](Cc1ccc(O)cc1)C(=O)N[C@@H](CCCCN)C(=O)N[C@@H](Cc1ccccc1)C(=O)O)[C@@H](C)O)C(C)C)[C@@H](C)O (HELM PEPTIDE1{[CCCCCCCCCCCC(=O)[*:2]].T.V.T.Y.K.F}$$$$V2.0) | > 80 µM | – | Ki [6]: 68 µM; Activity [7]: 1.2
– | CCCCCCCCCCCCCCC(N)C(=O)O (stereo not given) | – | < 10% | inhibition [3]: < 10%; inhibition [5]: < 10%
– | CC(C)C[C@H](NC(=O)[C@H](CCC(=O)O)NC(=O)[C@@H](N)Cc1ccc(O)cc1)C(=O)O (H-Tyr-Glu-Leu-OH) | – | < 10% | inhibition [3]: < 10%; inhibition [5]: < 10%
> 625 µM | H-TISYDY-OH | > 625 µM | – | inhibition [1]: < 10%
– | CCCCCCCCCCCCCCCC(=O)N[C@H](C(=O)N[C@H](C(=O)N[C@H](C(=O)N[C@@H](Cc1ccccc1)C(=O)N[C@@H](CC(=O)O)C(=O)N[C@@H](Cc1ccc(O)cc1)C(=O)O)[C@@H](C)O)[C@@H](C)CC)[C@@H](C)O (HELM PEPTIDE1{[CCCCCCCCCCCCCCCC(=O)[*:2]].T.I.T.F.D.Y}$$$$V2.0) | 80 µM | < 10% | Activity [7]: 1.5
– | CCCCCCCCCCCCCCCC(=O)N[C@@H](Cc1ccc(O)cc1)C(=O)N[C@@H](CCCCN)C(=O)N[C@@H](Cc1ccccc1)C(=O)O (HELM PEPTIDE1{[CCCCCCCCCCCCCCCC(=O)[*:2]].Y.K.F}$$$$V2.0) | 81 µM | – | Ki [6]: > 80 µM; inhibition [5]: < 10%

Compound | Ki (Proteasome component C5) | Ki [2] | inhibition [4] | further results
CCCCCCCCCCCCCCCC(=O)N[C@@H](Cc1ccc(O)cc1)C(=O)N[C@@H](CCC(=O)O)C(=O)N[C@H](C(=O)O)[C@@H](C)O (HELM PEPTIDE1{[CCCCCCCCCCCCCCCC(=O)[*:2]].Y.E.T}$$$$V2.0) | 21 µM | 20 µM | – | –
CCCCCCCCCCCCCCCC(=O)N[C@@H](Cc1ccc(O)cc1)C(=O)N[C@@H](CCC(=O)O)C(=O)N[C@@H](CC(C)C)C(=O)O (HELM PEPTIDE1{[CCCCCCCCCCCCCCCC(=O)[*:2]].Y.E.L}$$$$V2.0) | 15 µM | 18 µM | – | Ki [6]: > 80 µM
CCCCCCCCCCCCCCC(N)C(=O)N[C@@H](Cc1ccc(O)cc1)C(=O)N[C@@H](CCC(=O)O)C(=O)N[C@H](C(=O)O)[C@@H](C)O (stereo not given in full) (HELM PEPTIDE1{[CCCCCCCCCCCCCCC(N)C(=O)[*:2]].Y.E.T}$$$$V2.0) | 8 µM | 5 µM | – | –
CCCCCCCCCCCCCCCC(=O)N[C@@H](Cc1ccc(O)cc1)C(=O)N[C@@H](CC(=O)O)C(=O)N[C@@H](CC(C)C)C(=O)O (HELM PEPTIDE1{[CCCCCCCCCCCCCCCC(=O)[*:2]].Y.D.L}$$$$V2.0) | 15 µM | 20 µM | – | Ki [6]: > 80 µM
CCCCCCCC(=O)N[C@H](C(=O)N[C@H](C(=O)N[C@H](C(=O)N[C@@H](Cc1ccccc1)C(=O)N[C@@H](CC(=O)O)C(=O)N[C@@H](Cc1ccc(O)cc1)C(=O)O)[C@@H](C)O)[C@@H](C)CC)[C@@H](C)O (HELM PEPTIDE1{[CCCCCCCC(=O)[*:2]].T.I.T.F.D.Y}$$$$V2.0) | > 80 µM | 43 µM | < 10% | –
H-TVTFKF-OH | 148 µM | 139 µM | – | inhibition [1]: < 10%
H-TITYDL-OH | > 625 µM | 619 µM | – | inhibition [1]: < 10%

— ChEMBL document CHEMBL1148514, “Development of lipopeptides for inhibiting 20S proteasomes” (Bioorg Med Chem Lett, 2006)
